Values joined by “and” are separate entries in the source; they are usually repeats but may differ in a detail not shown here. Identical values can stand only once.
Experiments:
[1] = tested on: Drosophila melanogaster RyR M4758I; assay: Bioassay of gene-edited Drosophila melanogaster (feeding, mortality after 24 h); assay type: in vivo; settings: 24 h
[2] = tested on: Drosophila melanogaster RyR G4915E; assay: as above; assay type: in vivo; settings: 24 h

Structure (SMILES): Cc1cc(C(F)(C(F)(F)F)C(F)(F)F)ccc1NC(=O)c1cccc(I)c1C(=O)NC(C)(C)CS(C)(=O)=O [FLU, flubendiamide]
- death rate ([1]; FLU 0.033 uM): 0%
- death rate ([1]; FLU 0.100 uM): 0% and 10%
- death rate ([1]; FLU 0.333 uM): 10%
- death rate ([1]; FLU 1.000 uM): 10% and 20%
- death rate ([1]; FLU 3.333 uM): 20% and 30%
- death rate ([1]; FLU 10.000 uM): 50%
- death rate ([1]; FLU 33.333 uM): 60% and 70%
- death rate ([1]; FLU 100.000 uM): 100%
- death rate ([1]; FLU 333.333 uM): 100%
- death rate ([2]; FLU 1.000 uM): 0%
- death rate ([2]; FLU 3.333 uM): 0%
- death rate ([2]; FLU 10.000 uM): 0%
- death rate ([2]; FLU 33.333 uM): 0%
- death rate ([2]; FLU 100.000 uM): 0%
- death rate ([2]; FLU 333.333 uM): 0%

Reference: paper PMC11491487 (Nature Communications, 2024)
